Read-outs that look alike come from different tables or passages of the source.
What was measured:
[1] = biological target: T1, DosS (Mycobacterium tuberculosis, UniProt P9WGK3); format: binding; conditions: for binding to DosS heme iron (heme-nitrosyl / heme-carbonyl formation): ferrous DosS (DTH treated), UV-visible and EPR spectroscopy
[2] = biological target: T2, DosT (Mycobacterium tuberculosis, UniProt P9WGK1); format: binding; conditions: for binding to DosT heme iron (nitrosylated / carbonylated heme formation): deoxy DosT (DTH treated), UV-visible and EPR spectroscopy; for binding to DosT heme iron in the presence of O2: oxy DosT (Fe2+-O2)
T2 sequence (P9WGK1 whole entry): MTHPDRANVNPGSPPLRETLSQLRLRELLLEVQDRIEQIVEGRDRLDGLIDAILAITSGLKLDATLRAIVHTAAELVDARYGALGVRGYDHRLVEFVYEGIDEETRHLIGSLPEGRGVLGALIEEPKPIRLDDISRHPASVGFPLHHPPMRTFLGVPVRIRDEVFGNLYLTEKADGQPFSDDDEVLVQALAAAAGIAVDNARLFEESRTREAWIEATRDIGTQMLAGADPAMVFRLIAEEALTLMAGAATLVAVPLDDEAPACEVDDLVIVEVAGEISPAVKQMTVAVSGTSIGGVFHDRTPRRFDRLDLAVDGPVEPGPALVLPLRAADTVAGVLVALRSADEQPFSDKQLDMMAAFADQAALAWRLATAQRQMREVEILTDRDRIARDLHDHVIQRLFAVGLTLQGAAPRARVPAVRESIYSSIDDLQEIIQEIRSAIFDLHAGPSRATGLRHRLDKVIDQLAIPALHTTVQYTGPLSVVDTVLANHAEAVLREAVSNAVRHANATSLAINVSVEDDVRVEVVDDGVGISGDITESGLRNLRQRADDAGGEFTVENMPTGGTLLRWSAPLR

[3] = biological target: T1, DosS; format: biochemical
Experimental: (§1) In-vitro phosphorylation assays were performed according to previously described methods (Roberts et al., J. Biol. Chem., 2004, 279:22) and analyzed on 4-20% Tris-HCl gradient PAGE gels, dried and exposed to X-ray film overnight at −80° C. Formation of a heme-nitrosyl/carbonyl complex was first confirmed by absorption spectroscopy before analyzing samples for autokinase activity. As an additional control, air exposed samples were also treated with proline NONOate. The effect of CO on autokinase activity was measured similarly as described for NO, except that protein samples were flushed with 100% CO for 30 seconds. All autokinase reactions were performed inside the glove box.

[4] = biological target: T2, DosT; format: biochemical
Experimental: as §1

[5] = DTH reduced DosS (Fe2+) exposed to ligand, relative to met DosS

T1 sequence (P9WGK3 whole entry): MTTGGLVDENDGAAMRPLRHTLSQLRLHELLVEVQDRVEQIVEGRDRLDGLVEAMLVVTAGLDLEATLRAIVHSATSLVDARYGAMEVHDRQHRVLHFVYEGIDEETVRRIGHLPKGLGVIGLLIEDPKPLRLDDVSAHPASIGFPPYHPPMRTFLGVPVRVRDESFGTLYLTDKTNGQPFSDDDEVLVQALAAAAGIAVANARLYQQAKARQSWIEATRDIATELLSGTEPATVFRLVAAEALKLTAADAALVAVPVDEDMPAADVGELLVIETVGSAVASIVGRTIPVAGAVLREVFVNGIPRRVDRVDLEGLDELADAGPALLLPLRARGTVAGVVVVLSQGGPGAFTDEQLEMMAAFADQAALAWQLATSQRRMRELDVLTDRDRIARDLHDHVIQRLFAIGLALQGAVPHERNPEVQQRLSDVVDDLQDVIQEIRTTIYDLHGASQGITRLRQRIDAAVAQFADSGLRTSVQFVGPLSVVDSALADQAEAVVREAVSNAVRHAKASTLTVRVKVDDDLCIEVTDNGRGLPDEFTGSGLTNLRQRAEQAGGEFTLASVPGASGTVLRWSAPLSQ

SMILES | binding to DosS heme iron (heme-nitrosyl / heme-carbonyl formation) [1] | binding to DosT heme iron (nitrosylated / carbonylated heme formation) [2] | binding to DosT heme iron in the presence of O2 [2] | effect on DosS autokinase activity [3, 5] | other results
[C-]#[O+] [CO, carbon monoxide] | generated heme-nitrosyl and heme-carbonyl DosS species | highly characteristic of the formation of nitrosylated and carbonylated heme species | highly indicative of a heme-carbonyl complex | significantly increased autokinase activity as compared to inactive met DosS | effect on DosS autokinase activity ([3]; met DosS (Fe3+) exposed to ligand): found not to generate any further autokinase activity; rank of DosT autokinase activity ([4]; deoxy DosT (DTH reduced) treated with ligand vs untreated): deoxy DosT showed the highest autokinase activity, followed by CO-DosT and finally oxy DosT; effect on DosT autokinase activity ([4]; oxy DosT treated with ligand on the bench): significantly enhanced autokinase activity compared to inactive oxy DosT
[N]=O [NO, nitric oxide] | binds DosS | binds deoxy DosT | but not NO can effectively substitute O2 from oxy DosT | significantly increased autokinase activity to levels comparable to active ferrous DosS autokinase activity | effect on DosT autokinase activity ([4]; ligand bound to DosT, compared with deoxy or oxy DosT): significantly increased autokinase activity as compared to inactive oxy DosT
O=O [O2, oxygen] | – | – | – | – | effect on DosS heme iron oxidation state [1]: rapidly oxidized by O2 to generate met DosS; state of DosT heme iron after air exposure [2]: air exposed DosT is in the oxygen bound (oxy) form; effect on DosS autokinase activity [3]: dramatically decreases its autokinase activity; effect on DosT autokinase activity [4]: inhibits autokinase activity
O=C([O-])[C@@H]1CCCN1/[N+]([O-])=N/[O-].[Na+].[Na+] [proline NONOate] | – | – | did not generate any detectable nitrosyl-heme species | – | binding to DosS heme iron (nitrosyl-heme EPR signal) ([1]; air exposed (met, Fe3+) DosS): no EPR signal characteristic of a nitrosyl-heme species was generated

— patent publication US8795978B2, “Modulating latency and reactivation of Mycobacterium tuberculosis” (priority 2007, dated 2014)
